Legend:
[1] = biological target: T1, TRPC6 (Homo sapiens, UniProt Q9Y210); experiment: Calcium influx (fluo-4 [Ca2+]i) in TRPC6-expressing HEK293 cells; format: cell-based; conditions: 0.01 to 20 μM; activated with 50 μM OAG or GPCR agonist mix; FIG. 1
T1 construct: expressed in transfected cells
T1 sequence (Q9Y210 1-931): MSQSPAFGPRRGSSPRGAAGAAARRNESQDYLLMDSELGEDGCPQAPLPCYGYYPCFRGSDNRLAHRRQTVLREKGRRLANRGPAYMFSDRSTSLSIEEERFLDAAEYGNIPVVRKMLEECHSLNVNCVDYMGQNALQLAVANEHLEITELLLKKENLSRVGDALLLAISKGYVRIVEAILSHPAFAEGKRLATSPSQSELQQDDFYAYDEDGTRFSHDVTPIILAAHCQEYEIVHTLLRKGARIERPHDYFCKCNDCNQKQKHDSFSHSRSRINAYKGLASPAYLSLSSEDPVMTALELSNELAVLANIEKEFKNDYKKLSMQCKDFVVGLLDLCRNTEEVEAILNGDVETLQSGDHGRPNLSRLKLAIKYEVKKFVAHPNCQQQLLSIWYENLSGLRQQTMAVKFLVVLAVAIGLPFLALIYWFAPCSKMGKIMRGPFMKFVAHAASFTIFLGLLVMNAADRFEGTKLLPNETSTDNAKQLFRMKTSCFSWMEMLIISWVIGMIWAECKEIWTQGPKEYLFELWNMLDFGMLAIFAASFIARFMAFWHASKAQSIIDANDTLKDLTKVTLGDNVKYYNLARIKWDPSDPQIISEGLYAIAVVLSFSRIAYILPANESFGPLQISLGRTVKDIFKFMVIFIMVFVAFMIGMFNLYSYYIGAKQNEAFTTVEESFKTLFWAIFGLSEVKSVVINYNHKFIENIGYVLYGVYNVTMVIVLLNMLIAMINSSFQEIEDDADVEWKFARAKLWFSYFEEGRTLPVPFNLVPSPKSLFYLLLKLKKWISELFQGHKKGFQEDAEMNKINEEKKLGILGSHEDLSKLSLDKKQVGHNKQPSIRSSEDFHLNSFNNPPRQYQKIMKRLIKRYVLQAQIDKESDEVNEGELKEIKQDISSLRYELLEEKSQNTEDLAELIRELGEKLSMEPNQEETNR
Description: (§1) HEK293 (ATCC CRL-1573) cells were grown in Earle's Minimum Essential Medium (MEM) supplemented with 10 Vol.-% fetal calf serum, 2 mM (mmol/l) L-glutamine, 100 units/ml penicillin and 0.1 mg/ml streptomycin. Cells were seeded in 35-mm culture dishes, grown for 24 h, and transfected at 80% confluence with 2 μg of plasmid DNA encoding a C-terminally YFP-tagged human TRPC6 and 4 μl of Fugene HD reagent (Roche) in 100 μl serum-free medium. To select stably transfected HEKhTRPC6-YFP clones, 1 mg/ml geneticin (G418) was added to the medium. […] To verify functional expression, different clones were isolated and tested by single-cell [Ca^2+]i imaging experiments. […]
(§2) To assess the effect of bicyclic labdane diterpenes on calcium transport via TRP channels, larixol and larixol acetate was added to cell lines from example 1. Blocking of the respective TRP channel was determined by determining increases in [Ca^2+]i in suspensions. To activate the TRP channels, an activator of the respective channel was added, and changes in fluorescence intensity of intracellularly loaded fluo-4 was determined with a multiwell plate reader device (Polarstar Omega, BMG Labtech). For HEKrTRPV1 cells, assessment of activation was performed by monitoring the intracellular acidification, which results in fluorescence loss of co-expressed YFP. […]

[2] = biological target: T2, rat TRPV1 (Rattus norvegicus, UniProt O35433); experiment: Specificity test in HEKrTRPV1 cells (intracellular acidification, YFP fluorescence loss); format: cell-based; conditions: activator 2 μM capsaicin; FIG. 1
T2 construct: expressed in transfected cells; host or cells: HEK293 (line rTRPV1)
Description: as §1, §2

[3] = biological target: T3, human TRPM8 (Homo sapiens, UniProt Q7Z2W7); experiment: Specificity test, calcium influx in hTRPM8 HEK293 cells; format: cell-based; conditions: FIG. 1
T3 construct: expressed in transfected cells; host or cells: HEK293 (line hTRPM8)
Description: as §1, §2

[4] = biological target: T4, human TRPM2 (Homo sapiens, UniProt O94759); experiment: Specificity test, calcium influx in hTRPM2 HEK293 cells; format: cell-based; conditions: activator 1 mM H2O2; FIG. 1
T4 construct: expressed in transfected cells; host or cells: HEK293 (line hTRPM2)
Description: as §1, §2

[5] = biological target: T5, human TRPM3 (Homo sapiens, UniProt Q9HCF6); experiment: Specificity test, calcium influx in hTRPM3 HEK293 cells; format: cell-based; conditions: FIG. 1
T5 construct: expressed in transfected cells; host or cells: HEK293 (line hTRPM3)
Description: as §1, §2

[6] = tested on: other TRP channels; experiment: Specificity tests in cell lines overexpressing other TRP channels; format: cell-based; conditions: FIG. 1
Description: as §1, §2

[7] = biological target: T1, TRPC6; experiment: Electrophysiological whole-cell recordings of TRPC6-mediated current; format: cell-based
Description: FIG. 2 Larixol acetate acts from the outside of the cells. A: Electrophysiological whole-cell recordings were performed to determine the TRPC6-mediated current upon direct stimulation with 50 μM OAG or by activating heterotrimeric G-proteins with intracellularly applied AlF4 (50 μM), to trigger phospholipase C activation, resulting in the formation of endogenous diacylglycerols. To expose the cytosolic side of the channel protein to larixol acetate, larixol acetate was added to the intracellular solution (hatched bars and filled bars). Control solutions without larixol acetate (open bars) were measured in parallel.
TRPC6-expressing cells were seeded on glass coverslips, mounted onto the stage of an inverted microscope, and contacted with a borosilicate glass pipet filled with an intracellular solution. After reaching a gigaohm seal, the whole-cell configuration was obtained by gently applying a negative pressure at the pipet. Whole-cell currents were measured in the voltage clamped mode with a holding potential of −60 mV, and normalized for the cell size by dividing current amplitudes by the cellular capacitance (pA/pF). TRPC6 was activated either by adding OAG to the bath solution or by including 50 μM AlF4^− in the pipet solution.
In some experiments, the pipet solution was additionally supplemented with 1 μM larixol acetate to apply the modulator intracellularly (FIG. 2A, “inside”).

[8] = tested on: HEK293 cells; experiment: Propidium iodide exclusion cytotoxicity assay; format: cell-based, human; conditions: concentrations up to 10 μM, 24 h incubation
Description: FIG. 3 Larixol and larixol acetate to not show a cytotoxic effect on HEK293 cells. The cellular integrity was determined by exclusion of the DNA-binding fluorescent dye propidium iodide (PI).
To assess possible cytotoxic effects of the larixol and larixol acetate, a propidium iodide exclusion assay was performed. Cells were grown in 24 well plates for 18 h and then incubated with the indicated compounds for another 24 h (FIG. 3). Propidium iodide (2 μg/ml, Invitrogen) was added, and the fluorescence (excitation at 544 nm and detection at 620 nm) was followed. To obtain a maximum reference value, 0.2% Triton X-100 was added to some samples prior to propidium iodide injection. The following controls were tested: • negative controls: HBS buffer (“control”), or 0.1% DMSO in HBS buffer, added to the growth medium in the same volume as for 10 μM larixol (“0.1% DMSO”). • positive controls: 2 μm staurosporine, 50 μm digitonin

[9] = tested on: hypoxia-induced pulmonary vasoconstriction (HPV); experiment: Hypoxia-induced pulmonary vasoconstriction (HPV) in isolated perfused mouse lungs; format: in vivo; conditions: 5 μM in perfusion solution; isolated perfused C57BL/6 mouse lungs; 1% O2
Description: FIG. 4 Inhibition of hypoxia-induced pulmonary vasoconstriction (HPV) by larixol acetate.
To assess whether the TRPC6 blocking action of larixol acetate is potent to prevent HPV, larixol acetate was supplied in an induced mouse model of HPV.
Anesthetized, male adult C57BL/6 mice were subjected to tracheostomy, followed by volume-controlled normoxic ventilation. Midsternal thoracotomy was performed, and two cannulas (1 mm inner diameter) were inserted into the pulmonary artery and left atrium, respectively. Lungs were then perfused at a constant flow at 37° C. with a Hanks' Balanced Salt Solution (Sigma-Aldrich) containing 5% bovine serum albumin (Sigma-Aldrich) and 5% dextran (Sigma-Aldrich) at pH of 7.4. Indomethacin (30 μM) and N^G-nitro-L-arginine methylester (1 mM) were added to the perfusate to inhibit endogenous prostaglandin and nitric oxide synthesis.

[10] = tested on: lung edema formation; experiment: Ischemia-reperfusion-associated lung edema formation, rabbit lung transplantation model; format: in vivo; conditions: 5 μM in Perfadex and Tyrode solutions, explanted rabbit lungs
Description: FIG. 5 Inhibition of ischemia-reperfusion-associated lung edema formation by larixol acetate. Rabbit lungs were explanted and extracorporally perfused with Perfadex solution and ventilated under oxygenized conditions (open symbols) or under hypoxic conditions (filled symbols). Lungs were then placed on ice for 2 h, and reperfused for 90 min with tyrode solution. Upper panel: control experiments without larixol acetate, lower panel: similar experiments, but with Perfadex® and tyrode solutions that were supplemented with 5 μM larixol acetate. Increases in the lung wet weight indicate edema formation. Data represent means and S.E.M. (Standard error of the mean) of 6 individual experiments for each treatment group.
To assess whether larixol acetate mediated TRPC6 block can prevent endothelial dysfunction, the effect of larixol acetate was tested on lung edema formation in a rabbit lung transplantation model.
New Zealand white rabbits were anesthetized and subjected to tracheostomy. Animals were mechanically ventilated with room air (40 breaths min^−1) The thorax was opened by midline sternotomy, pulmonary arteries and the left atrium were cannulated, the heart-lung-block was excised and transferred to a thermostatted artificial thorax chamber. […] The wet weight of the lungs was recorded during the whole procedure. […]

T3 sequence (Q7Z2W7 whole entry): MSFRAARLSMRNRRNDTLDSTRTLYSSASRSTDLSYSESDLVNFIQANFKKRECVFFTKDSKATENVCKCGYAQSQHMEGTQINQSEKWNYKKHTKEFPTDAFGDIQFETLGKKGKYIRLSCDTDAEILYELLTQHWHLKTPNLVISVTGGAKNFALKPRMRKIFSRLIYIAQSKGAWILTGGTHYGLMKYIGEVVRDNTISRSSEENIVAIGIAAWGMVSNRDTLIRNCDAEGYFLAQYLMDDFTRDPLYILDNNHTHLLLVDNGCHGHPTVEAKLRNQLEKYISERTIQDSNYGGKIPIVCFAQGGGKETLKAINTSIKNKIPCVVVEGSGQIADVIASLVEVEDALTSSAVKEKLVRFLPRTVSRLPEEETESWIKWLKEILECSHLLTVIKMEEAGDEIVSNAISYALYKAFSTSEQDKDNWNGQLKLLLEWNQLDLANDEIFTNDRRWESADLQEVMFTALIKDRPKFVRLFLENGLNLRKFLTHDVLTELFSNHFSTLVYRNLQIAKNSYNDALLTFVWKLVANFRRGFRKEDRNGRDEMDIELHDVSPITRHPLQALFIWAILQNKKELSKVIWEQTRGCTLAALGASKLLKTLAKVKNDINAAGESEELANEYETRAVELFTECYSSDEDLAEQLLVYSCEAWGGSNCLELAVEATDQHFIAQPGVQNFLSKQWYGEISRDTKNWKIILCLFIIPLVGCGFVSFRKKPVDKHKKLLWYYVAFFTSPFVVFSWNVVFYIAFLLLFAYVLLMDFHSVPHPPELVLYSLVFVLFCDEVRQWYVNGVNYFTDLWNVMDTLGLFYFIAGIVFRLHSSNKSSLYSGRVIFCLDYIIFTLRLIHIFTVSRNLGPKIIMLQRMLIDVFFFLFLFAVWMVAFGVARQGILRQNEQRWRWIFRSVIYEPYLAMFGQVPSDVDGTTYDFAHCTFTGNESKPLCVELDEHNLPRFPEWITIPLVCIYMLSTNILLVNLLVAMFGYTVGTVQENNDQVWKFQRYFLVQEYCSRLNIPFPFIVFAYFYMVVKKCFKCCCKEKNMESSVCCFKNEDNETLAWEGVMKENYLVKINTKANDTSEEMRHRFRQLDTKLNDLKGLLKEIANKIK
T2 sequence (O35433 whole entry): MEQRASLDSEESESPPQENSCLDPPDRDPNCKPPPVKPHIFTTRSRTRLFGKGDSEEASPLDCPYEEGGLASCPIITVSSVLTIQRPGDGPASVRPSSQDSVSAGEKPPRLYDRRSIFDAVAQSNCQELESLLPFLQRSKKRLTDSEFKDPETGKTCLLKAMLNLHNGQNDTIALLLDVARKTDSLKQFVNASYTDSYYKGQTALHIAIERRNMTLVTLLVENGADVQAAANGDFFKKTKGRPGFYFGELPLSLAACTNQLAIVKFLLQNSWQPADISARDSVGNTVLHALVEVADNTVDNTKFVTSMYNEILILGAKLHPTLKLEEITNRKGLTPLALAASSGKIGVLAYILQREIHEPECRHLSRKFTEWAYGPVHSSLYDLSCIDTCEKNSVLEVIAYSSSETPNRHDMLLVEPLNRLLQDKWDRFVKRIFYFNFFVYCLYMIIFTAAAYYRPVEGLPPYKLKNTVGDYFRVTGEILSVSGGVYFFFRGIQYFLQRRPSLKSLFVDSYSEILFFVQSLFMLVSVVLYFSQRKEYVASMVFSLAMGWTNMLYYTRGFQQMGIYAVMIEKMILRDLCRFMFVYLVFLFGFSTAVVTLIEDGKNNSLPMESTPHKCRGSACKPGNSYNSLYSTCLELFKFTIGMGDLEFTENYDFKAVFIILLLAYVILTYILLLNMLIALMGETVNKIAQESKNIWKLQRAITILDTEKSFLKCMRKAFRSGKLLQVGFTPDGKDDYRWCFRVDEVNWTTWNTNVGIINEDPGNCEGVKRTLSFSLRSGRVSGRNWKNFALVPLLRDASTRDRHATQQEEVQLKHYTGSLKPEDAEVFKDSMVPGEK
T4 sequence (O94759 whole entry): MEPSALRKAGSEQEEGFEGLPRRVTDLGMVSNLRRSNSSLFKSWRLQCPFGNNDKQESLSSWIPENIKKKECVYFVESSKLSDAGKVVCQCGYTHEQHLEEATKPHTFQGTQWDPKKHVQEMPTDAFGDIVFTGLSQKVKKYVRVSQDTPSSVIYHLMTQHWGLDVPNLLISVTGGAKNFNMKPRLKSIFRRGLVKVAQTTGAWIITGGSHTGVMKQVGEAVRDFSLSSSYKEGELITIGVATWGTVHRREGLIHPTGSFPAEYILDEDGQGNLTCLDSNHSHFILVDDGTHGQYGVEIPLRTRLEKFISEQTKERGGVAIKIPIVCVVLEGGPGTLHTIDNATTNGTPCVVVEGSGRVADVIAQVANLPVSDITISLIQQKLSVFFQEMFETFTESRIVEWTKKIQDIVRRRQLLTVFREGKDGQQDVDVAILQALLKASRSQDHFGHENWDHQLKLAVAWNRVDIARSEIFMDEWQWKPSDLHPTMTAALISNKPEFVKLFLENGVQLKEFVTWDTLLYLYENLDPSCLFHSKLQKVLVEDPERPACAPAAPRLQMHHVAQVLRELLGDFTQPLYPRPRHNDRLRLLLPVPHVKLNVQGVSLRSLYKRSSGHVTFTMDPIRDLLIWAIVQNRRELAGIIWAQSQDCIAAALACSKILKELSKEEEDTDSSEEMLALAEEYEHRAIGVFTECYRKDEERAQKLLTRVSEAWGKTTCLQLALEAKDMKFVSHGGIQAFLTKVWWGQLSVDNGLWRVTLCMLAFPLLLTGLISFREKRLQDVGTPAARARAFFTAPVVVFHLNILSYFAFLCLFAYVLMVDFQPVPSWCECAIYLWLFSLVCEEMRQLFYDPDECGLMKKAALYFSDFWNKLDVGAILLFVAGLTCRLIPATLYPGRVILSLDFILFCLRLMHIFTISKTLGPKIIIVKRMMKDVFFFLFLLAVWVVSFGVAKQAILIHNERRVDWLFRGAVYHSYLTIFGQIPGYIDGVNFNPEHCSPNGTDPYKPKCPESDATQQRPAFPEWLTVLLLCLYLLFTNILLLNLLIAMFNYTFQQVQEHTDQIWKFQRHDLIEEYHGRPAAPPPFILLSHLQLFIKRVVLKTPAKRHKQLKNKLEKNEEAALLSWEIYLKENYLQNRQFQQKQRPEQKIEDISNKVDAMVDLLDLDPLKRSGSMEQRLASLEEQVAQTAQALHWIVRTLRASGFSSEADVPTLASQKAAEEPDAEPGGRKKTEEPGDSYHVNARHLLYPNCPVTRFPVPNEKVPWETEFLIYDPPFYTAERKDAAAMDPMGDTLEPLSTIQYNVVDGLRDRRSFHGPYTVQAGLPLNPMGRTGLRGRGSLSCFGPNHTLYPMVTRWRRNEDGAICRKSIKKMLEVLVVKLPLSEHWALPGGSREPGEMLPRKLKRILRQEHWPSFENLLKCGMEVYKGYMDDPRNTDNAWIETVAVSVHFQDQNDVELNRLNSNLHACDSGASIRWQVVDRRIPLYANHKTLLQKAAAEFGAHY

## C=C[C@@](C)(O)CC[C@H]1C(=C)C[C@H](O)[C@H]2C(C)(C)CCC[C@]12C [larixol]
[1]
  inhibition of calcium influx via TRPC6: selectively inhibit calcium influx via TRPC6
[2]
  effect on TRPV1: not affected
[3]
  effect on TRPM8: not affected
[4]
  effect on TRPM2: not affected
[5]
  effect on TRPM3: not affected
[6]
  inhibition of other TRP channels: not, or only poorly, inhibited

## larixol acetate
[1]
  inhibition of calcium influx via TRPC6: selectively inhibit calcium influx via TRPC6
[2]
  effect on TRPV1: not affected
[3]
  effect on TRPM8: not affected
[4]
  effect on TRPM2: not affected
[5]
  effect on TRPM3: not affected
[6]
  inhibition of other TRP channels: not, or only poorly, inhibited
[7]; 1 μM in pipet solution
  suppression of OAG- or AlF4-induced TRPC6 activation, intracellular exposure (inside, pipet solution): not sufficient to suppress
[7]; 1 μM, OAG or AlF4- activation, holding potential -60 mV
  block of TRPC6 whole-cell current, blocker applied via the bath solution (outside): efficient block
[8]
  cytotoxic effect (propidium iodide exclusion): no cytotoxic effect
[9]
  hypoxia-induced increase in pulmonary artery pressure (PAP): completely abrogated
[10]
  increase in lung wet weight (edema formation) under hypoxic treatment: prevented the increase in lung wet weight

From patent US20140309300A1, “Bicyclic Labdane Diterpenes for Use in the Treatment of TRPC6 Associated Diseases” (UNIVERSITAET LEIPZIG, priority 2011, published 2014)
